Columns and labels:
Format in all cases: cell-based, human
[1] = system: A-549; assay: Bioassay for apoptosis (apoptotic EC50); settings: unit not given, in µg/mL
Summary of the method: (§1)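 Adherent tumor cells exposed to compounds at 0.01–20 μg/mL for 1, 2 and 3 days. Floating plus trypsinized cells stained with DAPI and/or TUNEL; cells with condensed/fragmented chromatin or TUNEL-positive DNA scored microscopically, reported as percent apoptotic.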

[2] = system: DLD-1; assay: Bioassay for apoptosis (apoptotic EC50); settings: unit not given, in µg/mL
Summary of the method: as §1

[3] = system: DU-145; assay: Bioassay for apoptosis (apoptotic EC50); settings: unit not given, in µg/mL
Summary of the method: as §1

[4] = system: HL-60; assay: Bioassay for apoptosis (apoptotic EC50); settings: HL-60; unit not given; in µg/mL
Summary of the method: (§2)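 Both floating and trypsin-released adherent cells are collected after compound treatment at six concentrations from 0.01 to 20 μg/mL over up to 3 days. Nuclei are stained with DAPI at 37° C and/or TUNEL-labelled; the fraction with apoptotic morphology is scored.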

[5] = system: HT-29; assay: Bioassay for apoptosis (apoptotic EC50); settings: unit not given, in µg/mL
Summary of the method: as §1

[6] = system: Jurkat; assay: Bioassay for apoptosis (apoptotic EC50); settings: unit not given, in µg/mL
Summary of the method: as §1

[7] = system: LnCaP; assay: Bioassay for apoptosis (apoptotic EC50); settings: unit not given, in µg/mL
Summary of the method: as §2

[8] = system: MCF-7; assay: Bioassay for apoptosis (apoptotic EC50); settings: MCF-7; unit not given; in µg/mL
Summary of the method: as §2

[9] = system: MDA-MB-231; assay: Bioassay for apoptosis (apoptotic EC50); settings: MDA-MB-231; unit not given; in µg/mL
Summary of the method: as §2

[10] = system: MDA-MB-435; assay: Bioassay for apoptosis (apoptotic EC50); settings: MDA-MB-435; unit not given; in µg/mL
Summary of the method: as §2

[11] = system: ME-180; assay: Bioassay for apoptosis (apoptotic EC50); settings: ME-180; unit not given; in µg/mL
Summary of the method: as §2

[12] = system: Myeloma; assay: Bioassay for apoptosis (apoptotic EC50); settings: unit not given
Summary of the method: as §1

[13] = system: PC-3; assay: Bioassay for apoptosis (apoptotic EC50); settings: PC-3; unit not given; in µg/mL
Summary of the method: as §2

[14] = system: RL-95-2; assay: Bioassay for apoptosis (apoptotic EC50); settings: RL-95-2; unit not given; in µg/mL
Summary of the method: as §2

[15] = system: Raji; assay: Bioassay for apoptosis (apoptotic EC50); settings: unit not given
Summary of the method: as §1

[16] = system: Ramos; assay: Bioassay for apoptosis (apoptotic EC50); settings: unit not given
Summary of the method: as §1

[17] = system: MCF-7 cells; assay: DNA synthesis arrest by 3H-uptake (Example 8); settings: 5% serum, 3H-uptake at one day treatment
Experimental: (§3) MDA-MB-435 and MCF-7 cells at 1.5×10^5/well in 12 well plates for apoptosis and 1.5×10^4/well in 96 well plates for DNA synthesis arrest were incubated overnight in culture media and treated with α-tocopherol, α-tocotrinel, compound 1, 6-0-carboxymethyl alpha-tocotrienol (6-0-CM-α-T, 44), and vitamin E succinate (VES) at different concentrations in experimental media (2% serum for MDA-MB-435 cells and 5% serum for MCF-7 cells). DNA synthesis arrest was determined by ^3H-uptake at one day treatment and apoptosis was detected by DAPI staining at three day treatment. EC50 was calculated as the dosage of test compounds that gave 50% growth inhibition.

[18] = system: MDA-MB-435 cells; assay: DNA synthesis arrest by 3H-uptake (Example 8); settings: MDA-MB-435; 2% serum; 3H-uptake at one day treatment
Experimental: as §3

[19] = system: MCF-7 cells; assay: Apoptosis by DAPI staining (Example 8); settings: 5% serum, DAPI staining at three day treatment
Experimental: as §3

[20] = system: MDA-MB-435 cells; assay: Apoptosis by DAPI staining (Example 8); settings: MDA-MB-435; 2% serum; DAPI staining at three day treatment
Experimental: as §3

- apoptotic EC50 [1]: 20-30
- apoptotic EC50 [2]: 10-20
- apoptotic EC50 [3]: 10-20
- apoptotic EC50 [4]: 10-20
- apoptotic EC50 [5]: 5-10
- apoptotic EC50 [6]: 10-20
- apoptotic EC50 [7]: 5-10
- apoptotic EC50 [8]: 10-20
- apoptotic EC50 [9]: 5-10
- apoptotic EC50 [10]: 5-10
- apoptotic EC50 [11]: 10-20
- apoptotic EC50 [12]: 10-20
- apoptotic EC50 [13]: 10-20
- apoptotic EC50 [14]: 10-20
- apoptotic EC50 [15]: 10-20
- apoptotic EC50 [16]: 10-20
- EC50 [17]: 22 µM
- EC50 [18]: 17 µM
- EC50 [19]: 40 µM
- EC50 [20]: 36 µM
SMILES: Cc1c(C)c2c(c(C)c1OC(=O)CCC(=O)O)CC[C@@](C)(CCC[C@H](C)CCC[C@H](C)CCCC(C)C)O2 [VES, RRR-α-tocopherol succinate, reference compound]
